Laboratory results reported in patent US9802960B2 (MILLENNIUM PHARMACEUTICALS, INC., priority 2014, dated 2017).

These molecules were tested against Human VPS34 (Homo sapiens (Human), UniProt Q8NEB9) (assay: Human VPS34 enzyme assay (Adapta TR-FRET)). Settings: compound concentration 1.11 μM; read-out: Percent Inhibition.
Human VPS34, sequence (Q8NEB9 whole entry): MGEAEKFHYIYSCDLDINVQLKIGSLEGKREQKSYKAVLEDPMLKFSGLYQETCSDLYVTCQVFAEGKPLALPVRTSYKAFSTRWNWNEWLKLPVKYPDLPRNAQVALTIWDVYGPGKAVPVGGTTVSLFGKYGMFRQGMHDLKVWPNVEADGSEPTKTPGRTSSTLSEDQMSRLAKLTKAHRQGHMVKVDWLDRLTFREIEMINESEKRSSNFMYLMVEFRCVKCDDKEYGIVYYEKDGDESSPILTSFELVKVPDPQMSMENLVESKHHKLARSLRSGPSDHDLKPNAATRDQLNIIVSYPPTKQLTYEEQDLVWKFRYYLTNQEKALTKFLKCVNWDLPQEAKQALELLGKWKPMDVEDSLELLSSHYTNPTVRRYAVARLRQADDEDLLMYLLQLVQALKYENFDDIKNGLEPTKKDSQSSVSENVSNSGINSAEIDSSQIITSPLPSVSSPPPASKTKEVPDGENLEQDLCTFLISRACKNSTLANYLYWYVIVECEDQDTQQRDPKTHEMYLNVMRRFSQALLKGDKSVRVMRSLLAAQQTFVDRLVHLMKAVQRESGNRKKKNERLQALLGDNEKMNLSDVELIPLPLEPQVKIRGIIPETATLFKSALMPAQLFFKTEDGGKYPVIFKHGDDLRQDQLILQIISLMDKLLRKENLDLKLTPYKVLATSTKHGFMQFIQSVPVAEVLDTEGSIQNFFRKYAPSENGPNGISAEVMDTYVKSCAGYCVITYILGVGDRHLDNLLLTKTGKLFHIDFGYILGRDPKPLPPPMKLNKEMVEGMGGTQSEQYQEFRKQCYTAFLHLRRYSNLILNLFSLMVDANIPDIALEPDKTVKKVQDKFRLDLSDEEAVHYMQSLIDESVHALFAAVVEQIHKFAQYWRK
Assay type: biochemical
Work on `CC(=O)Nc1cc(-c2cnc(C)c(NS(=O)(=O)N3CCOCC3)c2)ccn1` [Compound I-447, N-{6-methyl-5-[(morpholin-4-ylsulfonyl)amino]-3,4′-bipyridin-2′-yl}acetamide] yielded an inhibition at 1.11 µM of 98%.
`CC(=O)Nc1cc(-c2cnc(Cl)c(N3CCCNS3(=O)=O)c2)ccn1` [Compound I-448, N-[6-chloro-5-(1,1-dioxido-1,2,6-thiadiazinan-2-yl)-3,4′-bipyridin-2′-yl]acetamide] gave an inhibition at 1.11 µM of 87%.
`CNc1ncc(-c2ccnc(NC(C)=O)c2)cc1C(=O)N(C)C12CC(C1)C2` [Compound I-449, 2′-acetamido-N-(bicyclo[1.1.1]pent-1-yl)-N-methyl-6-(methylamino)-3,4′-bipyridine-5-carboxamide] was tested, and the inhibition at 1.11 µM was 94%.
`CC(=O)Nc1cc(-c2ccnc(Nc3ccnc(C)n3)c2)cn2nccc12` [Compound I-450, N-(6-{2-[(2-methylpyrimidin-4-34)amino]pyridin-4-yl}pyrazolo[1,5-a]pyridin-4-yl)acetamide] gave an inhibition at 1.11 µM of 87%.
Molecule `CC(=O)Nc1cc(-c2cncc(N3CCCN(C)S3(=O)=O)c2)ccn1` [Compound I-452, N-[5-(6-methyl-1,1-dioxido-1,2,6-thiadiazinan-2-yl)-3,4′-bipyridin-2′-yl]acetamide] has an inhibition at 1.11 µM of over 99%.
Work on `Cc1nccc(Nc2cc(-c3c[n+]([O-])c(Cl)c(NS(=O)(=O)c4ccc(F)cc4F)c3C)ccn2)n1` [Compound I-454, N-(2-chloro-4-methyl-5-{2-[(2-methylpyrimidin-4-yl)amino]pyridin-4-yl}-1-oxidopyridin-3-yl)-2,4-difluorobenzenesulfonamide] yielded an inhibition at 1.11 µM of over 99%.
In the case of `CNS(=O)(=O)Nc1cc(-c2ccnc(NC(C)=O)c2)cnc1C` [Compound I-455, N-{6-methyl-5-[(methylsulfamoyl)amino]-3,4′-bipyridin-2′-yl}acetamide], the inhibition at 1.11 µM is reported as over 99%.
`CCOC(=O)Nc1cc(-c2cnc(C)c(NS(=O)(=O)c3ccc(Cl)cc3F)c2)ccn1` [Compound I-456, ethyl (5-{[(4-chloro-2-fluorophenyl)sulfonyl]amino}-6-methyl-3,4′-bipyridin-2′-yl)carbamate] showed an inhibition at 1.11 µM of over 99%.
Molecule `Cc1nccc(Nc2cc(-c3cnc(Cl)c(C(=O)N4CCC4)c3C)ccn2)n1` [Compound I-457, azetidin-1-yl{6-chloro-4-methyl-2′-[(2-methylpyrimidin-4-yl)amino]-3,4′-bipyridin-5-yl}methanone] has an inhibition at 1.11 µM of 95%.
`CC(=O)Nc1cc(-c2cncc(N(C)S(=O)(=O)N(C)C)c2)ccn1` [Compound I-458, N-{5-[(dimethylsulfamoyl)(methyl)amino]-3,4′-bipyridin-2′-yl}acetamide] showed an inhibition at 1.11 µM of over 99%.
`CC(=O)Nc1cc(-c2cncc(S(=O)(=O)Nc3ccccc3)c2)ccn1` [Compound I-459, N-[5-(phenylsulfamoyl)-3,4′-bipyridin-2′-yl]acetamide] showed an inhibition at 1.11 µM of 96%.
`CC(=O)Nc1cc(-c2cnc(C)c(N3CCCNC3=O)c2)ccn1` [Compound I-460, N-[6-methyl-5-(2-oxotetrahydropyrimidin-1 (2H)-yl)-3,4′-bipyridin-2′-yl]acetamide] was tested, and the inhibition at 1.11 µM was 60%.
Molecule `CC(=O)Nc1cc(-c2cncc(S(=O)(=O)NC(C)(C)C)c2C)ccn1` [Compound I-462, N-(5-(N-(tert-butyl)sulfamoyl)-4-methyl-[3,4′-bipyridin]-2′-yl)acetamide] has an inhibition at 1.11 µM of 98%.
`CC(=O)Nc1cc(-c2cnc(C)c(NS(=O)(=O)c3c(Cl)cccc3Cl)c2)ccn1` [Compound I-463, N-(5-{[(2,6-dichlorophenyl)sulfonyl]amino}-6-methyl-3,4′-bipyridin-2′-yl)acetamide] showed an inhibition at 1.11 µM of over 99%.
`CC(=O)Nc1cc(-c2cncc(S(=O)(=O)Nc3ccc(F)cc3F)c2)ccn1` [Compound I-464, N-{5-[(2,4-difluorophenyl)sulfamoyl]-3,4′-bipyridin-2′-yl}acetamide] was tested, and the inhibition at 1.11 µM was over 99%.
Molecule `CC(=O)Nc1cc(-c2cnc(C)c(NS(=O)(=O)c3cc(Cl)sc3Cl)c2)ccn1` [Compound I-465, N-(5-{[(2,5-dichloro-3-thienyl)sulfonyl]amino}-6-methyl-3,4′-bipyridin-2′-yl)acetamide] has an inhibition at 1.11 µM of 97%.
`Cc1c(-c2ccnc(Nc3ccnc(C4CC4)n3)c2)cnc(Cl)c1C(=O)N1CC(C)(C)C1` [Compound I-466, {6-chloro-2′-[(2-cyclopropylpyrimidin-4-yl)amino]-4-methyl-3,4′-bipyridin-5-yl}(3,3-dimethylazetidin-1-yl)methanone] gave an inhibition at 1.11 µM of 92%.
Molecule `CC(=O)Nc1cc(-c2cnc(Cl)c(N3CCCN(C)S3(=O)=O)c2)ccn1` [Compound I-467, N-[6-chloro-5-(6-methyl-1,1-dioxido-1,2,6-thiadiazinan-2-yl)-3,4′-bipyridin-2′-yl]acetamide] has an inhibition at 1.11 µM of over 99%.
With `CC(=O)Nc1cc(-c2cncc(S(=O)(=O)NC34CC5CC(CC(C5)C3)C4)c2)ccn1` [Compound I-468, N-[5-(adamantan-1-ylsulfamoyl)-3,4′-bipyridin-2′-yl]acetamide] the inhibition at 1.11 µM was over 99%.
`CCc1c(-c2ccnc(NC(C)=O)c2)cnc(Cl)c1NS(=O)(=O)c1ccc(F)cc1F` [Compound I-469, N-(6-chloro-5-{[(2,4-difluorophenyl)sulfonyl]amino}-4-ethyl-3,4′-bipyridin-2′-yl)acetamide] showed an inhibition at 1.11 µM of over 99%.
In the case of `COc1ncc(-c2ccnc(NC(C)=O)c2)cc1S(=O)(=O)NC12CC(C1)C2` [Compound I-470, N-[5-(bicyclo[1.1.1]pent-1-ylsulfamoyl)-6-methoxy-3,4′-bipyridin-2′-yl]acetamide], the inhibition at 1.11 µM is reported as over 99%.
`Cc1nccc(Nc2cc(-c3cnc(C)c(OC4CCCC4)c3)ccn2)n1` [Compound I-471, 5-(cyclopentyloxy)-6-methyl-N-(2-methylpyrimidin-4-yl)-3,4′-bipyridin-2′-amine] was tested, and the inhibition at 1.11 µM was 98%.
For `CC(=O)Nc1cc(-c2cncc(Nc3ncco3)c2)ccn1` [Compound I-472, N-[5-(1,3-oxazol-2-ylamino)-3,4′-bipyridin-2′-yl]acetamide], the inhibition at 1.11 µM was 96%.
Work on `CC(=O)Nc1cc(-c2cnc(Cl)c(N3CCCNS3(=O)=O)c2C)ccn1` [Compound I-473, N-[6-chloro-5-(1,1-dioxido-1,2,6-thiadiazinan-2-yl)-4-methyl-3,4′-bipyridin-2′-yl]acetamide] yielded an inhibition at 1.11 µM of 87%.
With `CC(=O)Nc1cc(-c2cncc(S(=O)(=O)N3CCC3)c2)ccn1` [Compound I-474, N-[5-(azetidin-1-ylsulfonyl)-3,4′-bipyridin-2′-yl]acetamide] the inhibition at 1.11 µM was 89%.
With `Cc1nccc(Nc2cc(-c3cnc(C)c(Oc4ccccc4)c3)ccn2)n1` [Compound I-475, 6-methyl-N-(2-methylpyrimidin-4-yl)-5-phenoxy-3,4′-bipyridin-2′-amine] the inhibition at 1.11 µM was over 99%.
Work on `CC(=O)Nc1cc(-c2cc(NS(=O)(=O)N(C)C)c3ccnn3c2)ccn1` [Compound I-476, N-(4-{4-[(dimethylsulfamoyl)amino]pyrazolo[1,5-a]pyridin-6-yl}pyridin-2-yl)acetamide] yielded an inhibition at 1.11 µM of 87%.
`CC(=O)Nc1cc(-c2cnc(Cl)c(NS(=O)(=O)N3CC4CCC3C4)c2C)ccn1` (stereo not drawn) [Compound I-477, N-{5-[(2-azabicyclo[2.2.1]hept-2-ylsulfonyl)amino]-6-chloro-4-methyl-3,4′-bipyridin-2′-yl}acetamide] was tested, and the inhibition at 1.11 µM was 93%.
For `CC(=O)Nc1cc(-c2cnc(C)c(OS(=O)(=O)c3ccc(F)cc3F)c2)ccn1` [Compound I-478, 2′-acetamido-6-methyl-3,4′-bipyridin-5-yl 2,4-difluorobenzenesulfonate], the inhibition at 1.11 µM was 84%.
`CCOc1cc(-c2ccnc(Nc3ccnc(C)n3)c2)cnc1C` [Compound I-479, 5-ethoxy-6-methyl-N-(2-methylpyrimidin-4-yl)-3,4′-bipyridin-2′-amine] was tested, and the inhibition at 1.11 µM was 98%.
`Cc1nccc(Nc2cc(-c3cc(N)c4ccnn4c3)ccn2)n1` [Compound I-480, 6-{2-[(2-methylpyrimidin-4-yl)amino]pyridin-4-yl}pyrazolo[1,5-a]pyridin-4-amine] gave an inhibition at 1.11 µM of 99%.
In the case of `CC(=O)Nc1cc(-c2cncc(S(=O)(=O)N3CCN(C)CC3)c2)ccn1` [Compound I-481, N-{5-[(4-methylpiperazin-1-yl)sulfonyl]-3,4′-bipyridin-2′-yl}acetamide], the inhibition at 1.11 µM is reported as over 99%.
Work on `Cc1nccc(Nc2cc(-c3cnc(C)c(NC(=O)N4CC(F)(F)C4)c3)ccn2)n1` [Compound I-482, 3,3-difluoro-N-{6-methyl-2′-[(2-methylpyrimidin-4-yl)amino]-3,4′-bipyridin-5-yl}azetidine-1-carboxamide] yielded an inhibition at 1.11 µM of over 99%.
`CC(=O)Nc1cc(-c2cnc(C)c(NS(=O)(=O)N3CCC(C)(C)CC3)c2)ccn1` [Compound I-483, N-(5-{[(4,4-dimethylpiperidin-1-yl)sulfonyl]amino}-6-methyl-3,4′-bipyridin-2′-yl)acetamide] was tested, and the inhibition at 1.11 µM was over 99%.
In the case of `CC(=O)Nc1cc(-c2cnc3c(c2)S(=O)(=O)NCCO3)ccn1` [Compound I-484, N-(4-(1,1-dioxido-3,4-dihydro-2H-pyrido[2,3-b][1,4,5]oxathiazepin-8-yl)pyridin-2-yl)acetamide], the inhibition at 1.11 µM is reported as 92%.
With `CC(=O)Nc1cc(-c2cnc(C)c(C(=O)N(C)c3ccc(F)cc3F)c2)ccn1` [Compound I-485, 2′-acetamido-N-(2,4-difluorophenyl)-N,6-dimethyl-3,4′-bipyridine-5-carboxamide] the inhibition at 1.11 µM was 100%.
`Cc1nccc(Nc2cc(-c3cc(NS(=O)(=O)c4ccc(F)cc4F)c4ccnn4c3)ccn2)n1` [Compound I-486, 2,4-difluoro-N-(6-{2-[(2-methylpyrimidin-4-yl)amino]pyridin-4-yl}pyrazolo[1,5-a]pyridin-4-yl)benzenesulfonamide] was tested, and the inhibition at 1.11 µM was 84%.
With `CC(=O)Nc1cc(-c2cnc(N(C)C)c(S(=O)(=O)NC(C)(C)C)c2C)ccn1` [Compound I-487, N-[5-(tert-butylsulfamoyl)-6-(dimethylamino)-4-methyl-3,4′-bipyridin-2′-yl]acetamide] the inhibition at 1.11 µM was 71%.
In the case of `CC(=O)Nc1cc(-c2cnc(Cl)c(NS(=O)(=O)N3CCCC3)c2C)ccn1` [Compound I-488, N-{6-chloro-4-methyl-5-[(pyrrolidin-1-ylsulfonyl)amino]-3,4′-bipyridin-2′-yl}acetamide], the inhibition at 1.11 µM is reported as over 99%.
